Experimental data as given in patent US20110207751A1, “HETEROCYCLIC COMPOUNDS AND USES AS ANTICANCER AGENTS” (priority 2010, published 2011).
Counter-ions that a name gives are not always drawn. Like-named read-outs stand apart in the source and are kept apart here.

Assays:
[1] = test system: A549 human non-small cell lung cancer xenograft; assay: In vivo antitumor efficacy, A549 xenograft; design: species or system BALB/c immunodeficient nude mice
Text: (§1) To evaluate the in vivo anticancer efficacy of COMPOUND O, A549 human non-small cell lung cancer xenograft models in immunodeficient nude mice was used. The cell line and mice were maintained in the Pharmacology Lab of ACEA Bio (Hangzhou) CO., Ltd. The BALB/c immunodeficient nude mice were purchased from Shanghai SLAC Laboratory Animal, certification number: SCXKA (Shanghai) 2007-0005. The mouse weight was between 21±1 g. Only female mice were used in this study. The numbers of animals tested were as follow: 7-8 for each dose group, 6 for positive control group and 7 for negative control group.
(§2) Test Control. For negative control, each mouse was administered orally with the solvent only having the same volume and same concentration as those used in COMPOUND O test, 120 mg/kg once every other day (qod) for 25 days. For positive control, an oral anticancer compound, Etoposide was administered orally at 30 mg/kg qod for 25 days.
(§3) Preparation an Administration of Test Compounds. COMPOUND O was dissolved in 25% phospholipid (S75) and 75% polyvinylpyrrolidone (PL-PVP) then further diluted to 8 mg/ml in 0.9% NaCl aqueous solution. Each mouse was administered orally with the compound solution. Different dosages of COMPOUND O (120 mg/kg qod and 160 mg/kg q2*2 (dosing for 2 consecutive days then off for 2 consecutive days) were used in the study.
Preparation of tumor cells for transplantation and determination of compound efficacy. To prepare the cancer cells for A549 human non-small cell lung cancer xenograft model, the log phase growing cell in the flask were trypsinized and cells were re-suspended in PBS (pH 7.2) at 2.5×10^7 cells/ml. The cell suspension (5×10^6 cells) was subcutaneously injected into the auxiliary region (right-side) of each mouse. After the inoculated cancer cells grew to a tumor of certain size (50-60 mm^3) in the nude mice (about 15 days post inoculation), the mice were randomized into different dosing groups and subjected to compound treatment. Between 3-4 weeks after the first dosing, mice were sacrificed and the transplanted tumors were removed from experimental mice. Each removed solid tumor was weighed; the tumor inhibition rate in each dosage group was calculated according to equation (1) in Example 1.
(§4) All used materials including animal food, animal cage, supporting materials and apparatus contacted by animals, were high-pressure sterilized. Nude mice were maintained in laminar flow shelves under SPF condition. After tumor transplantation, mouse weight and tumor size in each compound dosage group were dynamically monitored and plotted. The tumor size was determined by measuring the major axis (a) and minor axis (b) of the tumor, and tumor volume was calculated according to the formula (2) in Example 1.

[2] = Body weight and animal number of carrier mice, H460 xenograft test; type: in vivo, BALB/c immunodeficient nude mice; conditions: for Animal No. end: 7 at beginning
Text: as §1, with “O, H460” for “O, A549”, “lung Cancer” for “lung cancer”, “between 19±2” for “between 21±1”, “as follows: 7” for “as follow: 7-8”, “group, 7” for “group, 6”
as §2
as §3, with “q3d)” for “q2*2 (dosing for 2 consecutive days then off for 2 consecutive days)”
as §4

[3] = test system: KB200 cells over-expressing multiple drug resistant (MDR) gene; assay: Inhibition of cell proliferation, xCelligence cell index; type: cell-based; conditions: Homo sapiens
Text: The biological activity of compounds disclosed herein was monitored and profiled using the Real-Time Cell Electronic Sensing (RT-CES®) system from ACEA Biosciences, Inc. The RT-CES system utilizes cell-substrate impedance technology to monitor cellular behavior inside tissue culture wells in a microtiter plate format. The technology features in the integration of molecular and cell biology with microelectronics and is based on the electronic detection of biological assay process.
For measurement of cell-substrate or cell-electrode impedance using RT-CES technology, microelectrodes having appropriate geometries are fabricated onto the bottom surfaces of microtiter plate or similar device, facing into the wells. Cells are introduced into the wells of the devices, and make contact to and attach to the electrode surfaces. The presence, absence or change of properties of cells affects the electronic and ionic passage on the electrode sensor surfaces. Measuring the impedance between or among electrodes provides important information about biological status of cells present on the sensors. When there are changes to the biological status of the cells analogue electronic readout signals are measured automatically and in real time, and are converted to digital signals for processing and for analysis. In a RT-CES system, a cell index (arbitrary representation of change in impedance) is automatically derived and provided based on measured electrode impedance values. The cell index obtained for a given well reflects: 1) how many cells are attached to the electrode surfaces in this well; 2) how well cells are attached to the electrode surfaces in this well. Thus, the more the cells of same type in similar physiological conditions attach the electrode surfaces, the larger the cell index. And, the better the cells attach to the electrode surfaces (e.g., the cells spread-out more to have larger contact areas, or the cells attach tighter to electrode surfaces), the larger the cell index.
To quantify cell status based on the measured cell-electrode impedance, a parameter termed Cell Index is derived. Cell Index is a quantitative measure of the status of the cells in an electrode-containing well. Under the same physiological conditions, more cells attached on to the electrodes leads to larger cell-electrode resistance value, leading to a larger value for Cell Index. Furthermore, for the same number of cells present in the well, a change in the cell status such as morphology will lead to a change in the Cell Index. […]
The efficacy of these compounds was also tested against KB200 cell over-expressing multiple drug resistant (MDR) gene. […] The cell status was monitored prior to and after the compound addition using xCelligence system (Roche). […]

[4] = test system: A549 human lung cancer cells; assay: Mitotic arrest, phosphohistone H3 staining (mitotic index); type: cell-based; conditions: 33 nM
Text: Microtubules are extremely important in the process of mitosis, during which the duplicated chromosomes of a cell are separated into two identical sets before cleavage of the cell into two daughter cells. Compounds which target microtubules such as paclitaxel and vinblastine suppress the microtubule dynamics and block the process of mitosis. As consequence, cells will be arrested at G2/M phase. To test if COMPOUND O influences the process of mitosis in cancer cell dividing, A549 human lung cancer cells were treated with 33 nM of COMPOUND O and paclitaxel, or 0.2% DMSO that served as negative control. The treated cells were stained with an antibody against phosphohistone H3, a marker for cells undergoing mitosis and mitotic arrest. […] It was 44±8%, 45±3% and 3±1% for paclitaxel, COMPOUND O and DMSO treated A549, respectively.

[5] = 72 hr post compound treatment, read-out: calculated IC50

Compound: COc1cc([C@@H]2c3cc4c(cc3[C@@H](O[C@@H]3O[C@@H]5CO[C@@H](C)O[C@H]5[C@H](O)[C@H]3O)[C@H]3COC(=O)[C@H]23)OCO4)cc(OC)c1O [Etoposide, reference compound]
- TV inhibition rate % T/C ([1]; 30 mg/kg ig × 13 qod): 40.0%
- Tumor volume (mm^3) End ([1]; 30 mg/kg ig × 13 qod): 243 ± 121 mm^3
- Tumor volume (mm^3) Start ([1]; 30 mg/kg ig × 13 qod): 57.42 ± 23.5 mm^3
- Tumor weight (g) x ± SD ([1]; 30 mg/kg ig × 13 qod): 0.27 ± 0.15 g
- Tumor inhibition rate % ([1]; 30 mg/kg ig × 13 qod, by tumor weight): 59.9%
- Animal weight (g) Beginning ([2]; 30 mg/kg ig × 13 qod): 19.97 g
- Animal weight (g) end ([2]; 30 mg/kg ig × 13 qod): 17.13 g
- Body weight of mice (g) 1 day ([2]; 30 mg/kg ig × 13 qod): 19.97 ± 0.88 g
- Body weight of mice (g) 3 day ([2]; 30 mg/kg ig × 13 qod): 19.66 ± 0.75 g
- Body weight of mice (g) 7 day ([2]; 30 mg/kg ig × 13 qod): 19.70 ± 1.38 g
- Body weight of mice (g) 10 day ([2]; 30 mg/kg ig × 13 qod): 19.66 ± 1.10 g
- Body weight of mice (g) 14 day ([2]; 30 mg/kg ig × 13 qod): 18.86 ± 1.07 g
- Body weight of mice (g) 17 day ([2]; 30 mg/kg ig × 13 qod): 18.79 ± 1.17 g
- Body weight of mice (g) 22 day ([2]; 30 mg/kg ig × 13 qod): 17.86 ± 1.35 g
- Body weight of mice (g) 24 day ([2]; 30 mg/kg ig × 13 qod): 17.56 ± 1.44 g
- Body weight of mice (g) 25 day ([2]; 30 mg/kg ig × 13 qod): 17.13 ± 1.14 g
- Animal No. end ([2]; 30 mg/kg ig × 13 qod): 7/7

Compound: CCc1ccc(Nc2nc(-c3c(C)nc4sccn34)cs2)cc1 [COMPOUND O, 2-(4-ethylphenyl)amino-4-(6-methylimidazo[2,1-b]thiazol-5-yl)-thiazole monohydrobromide]
- IC50 [3, 5]: 9.84 nM
- TV inhibition rate % T/C ([1]; 120 mg/kg ig × 14 qod): 37.5%
- Tumor volume (mm^3) End ([1]; 120 mg/kg ig × 14 qod): 244 ± 105 mm^3
- Tumor volume (mm^3) Start ([1]; 120 mg/kg ig × 14 qod): 53.31 ± 24.5 mm^3
- Tumor weight (g) x ± SD ([1]; 120 mg/kg ig × 14 qod): 0.25 ± 0.08 g
- Tumor inhibition rate % ([1]; 120 mg/kg ig × 14 qod, by tumor weight): 67.8%
- TV inhibition rate % T/C ([1]; 160 mg/kg ig × 11 q2*2): 47.9%
- Tumor volume (mm^3) End ([1]; 160 mg/kg ig × 11 q2*2): 265 ± 135 mm^3
- Tumor volume (mm^3) Start ([1]; 160 mg/kg ig × 11 q2*2): 45.25 ± 15.9 mm^3
- Tumor weight (g) x ± SD ([1]; 160 mg/kg ig × 11 q2*2): 0.29 ± 0.11 g
- Tumor inhibition rate % ([1]; 160 mg/kg ig × 11 q2*2, by tumor weight): 62.5%
- Animal weight (g) Beginning ([2]; 120 mg/kg ig × 11 qod): 20.04 g
- Animal weight (g) end ([2]; 120 mg/kg ig × 11 qod): 17.33 g
- Body weight of mice (g) 1 day ([2]; 120 mg/kg ig × 11 qod): 20.04 ± 0.51 g
- Body weight of mice (g) 3 day ([2]; 120 mg/kg ig × 11 qod): 19.80 ± 1.18 g
- Body weight of mice (g) 7 day ([2]; 120 mg/kg ig × 11 qod): 18.86 ± 0.70 g
- Body weight of mice (g) 10 day ([2]; 120 mg/kg ig × 11 qod): 18.20 ± 0.68 g
- Body weight of mice (g) 14 day ([2]; 120 mg/kg ig × 11 qod): 18.11 ± 0.49 g
- Body weight of mice (g) 17 day ([2]; 120 mg/kg ig × 11 qod): 17.43 ± 0.51 g
- Body weight of mice (g) 22 day ([2]; 120 mg/kg ig × 11 qod): 17.24 ± 0.72 g
- Body weight of mice (g) 24 day ([2]; 120 mg/kg ig × 11 qod): 17.56 ± 1.21 g
- Body weight of mice (g) 25 day ([2]; 120 mg/kg ig × 11 qod): 17.33 ± 1.23 g
- Animal No. end ([2]; 120 mg/kg ig × 11 qod): 7/7
- Animal weight (g) Beginning ([2]; 160 mg/kg ig × 9 q3d): 20.00 g
- Animal weight (g) end ([2]; 160 mg/kg ig × 9 q3d): 16.24 g
- Body weight of mice (g) 1 day ([2]; 160 mg/kg ig × 9 q3d): 20.00 ± 0.48 g
- Body weight of mice (g) 3 day ([2]; 160 mg/kg ig × 9 q3d): 20.54 ± 0.53 g
- Body weight of mice (g) 7 day ([2]; 160 mg/kg ig × 9 q3d): 18.64 ± 0.61 g
- Body weight of mice (g) 10 day ([2]; 160 mg/kg ig × 9 q3d): 17.89 ± 0.39 g
- Body weight of mice (g) 14 day ([2]; 160 mg/kg ig × 9 q3d): 17.83 ± 0.57 g
- Body weight of mice (g) 17 day ([2]; 160 mg/kg ig × 9 q3d): 18.24 ± 0.46 g
- Body weight of mice (g) 22 day ([2]; 160 mg/kg ig × 9 q3d): 16.91 ± 0.97 g
- Body weight of mice (g) 24 day ([2]; 160 mg/kg ig × 9 q3d): 16.53 ± 1.29 g
- Body weight of mice (g) 25 day ([2]; 160 mg/kg ig × 9 q3d): 16.24 ± 1.55 g
- Animal No. end ([2]; 160 mg/kg ig × 9 q3d): 7/7
- mitotic index [4]: 45±3%

Compound: CC(=O)O[C@H]1C(=O)[C@@]2(C)[C@H]([C@H](OC(=O)c3ccccc3)[C@]3(O)C[C@H](OC(=O)[C@H](O)[C@@H](NC(=O)c4ccccc4)c4ccccc4)C(C)=C1C3(C)C)[C@]1(OC(C)=O)CO[C@@H]1C[C@@H]2O [paclitaxel]
- IC50 [3, 5]: > 1000 nM
- IC50 ([3]; read-out: IC50): > 1000 nM
- mitotic index [4]: 44±8%
